Measured values reported in publication PMC6270194 (Molecules, 2013).
Marks after values point to notes of the source that are not given here.

Legend:
[1] = tested on: angiotensin converting enzyme (ACE); assay: Angiotensin converting enzyme (ACE) inhibition assay; format: biochemical; details: 10 μM compounds dissolved in DMSO
Procedure: ACE assay is based on ACE inhibitory activity of test samples. The enzyme activity was measured by production of hippuric acid from the substrate hippuryl-L-histidyl-L-leucine (HHL). ACE cleaves the substrate to expose a free N-terminus, which was fluorogenically labeled with o-phthaldialdehyde (OPA). The florescence signal was measured by using excitation of 350 nm and emission of 500 nm. ACE inhibition activity of samples was measured using the following equation: % inhibition = 100 − (Acontrol − Asample)/Acontrol × 100 (1) where A is the absorbance Equation (1).

Tyrosinase = Tyrosinase inhibition assay (L-DOPA substrate); format: biochemical; details: 10 μM compounds dissolved in DMSO
Procedure: Tyrosinase inhibition was calculated based on previously described methods using L-DOPA as the substrate. Tyrosinase inhibition depended upon the amount of dopachrome produced in the reaction mixture. Absorption was measured at 490 nm to calculate the amount of dopachrome produced. The assay was performed in 96-well clear polystyrene plates using FLUOstar OPTIMA plate reader. The tyrosinase inhibitory effect of sample was measured using the following the Equation (1).

[2] = Ferric reducing ability of plasma (FRAP) assay; details: for FRAP antioxidant capacity: 10 μM compounds dissolved in DMSO, Trolox equivalence, mean ± SD
Text: The FRAP assay uses antioxidants in a redox-linked colorimetric assay to reduce ferric tripyridyl triazine to ferrous form at low pH [20].
FRAP assay is based on ferric to ferrous ion reduction to test the electron donating capacity of antioxidants. The assay was modified by using the 96-well microplate reader with an injection port system. Briefly, the FRAP working reagent was made using acetate buffer, 2,4,6-Tris (2-pyridyl)-s-triazine solution and ferric chloride in the ratio 10:1:1. […] After 6 min reaction time, absorbance was measured at 593 nm. Trolox standards at different concentrations were used to calculate the antioxidant capacity as mmol Trolox equivalence per L.

[3] = Oxygen radical absorbance capacity (ORAC) assay; details: for ORAC antioxidant capacity: 1 μM compounds dissolved in DMSO, Trolox equivalence, mean ± SD
Procedure: ORAC assay is based on the free radical damage to a fluorescence probe measured by fluorescence intensity over the time. The fluorescein sodium salt was used as fluorescence probe and change in its intensity was estimated as the index of the degree of free radical damage. Assay was performed using method described elsewhere. Briefly, the standards and samples were prepared using 75 mM phosphate buffer (pH 7). As the peroxy radicals are generated from decomposition of 2,2'-azobis(2-amidino-propane) dihydrochloride (AAPH), the signal was quenched from fluorescein. However, in the presence of antioxidant samples the fluorescence signal can be stabilize which depends directly upon the antioxidant’s capacity to neutralize the free radical. Quadratic relation emerging from florescent area under the decaying curve was used to calculate antioxidant capacity as mmol Trolox equivalence per L.

HIV-1 protease = biological target: T1, HIV-1 protease (Human immunodeficiency virus type 1 group M subtype B, UniProt P04585); assay: HIV-1 protease inhibition assay (fluorescent substrate); format: biochemical; details: 10 μM compounds dissolved in DMSO; for inhibition at 10 µM: read-out: % Enzyme Inhibition HIV-I protease
T1 construct: HIV-1 protease enzyme (Sigma Aldrich); purchased Sigma Aldrich
Procedure: HIV-1 protease inhibition was performed by using a previously described method. HIV protease fluorescent substrate and HIV-1 protease enzyme (Sigma Aldrich) were used to determine HIV inhibition capacity of sample. Three primary controls i.e., blank, sample and positive control were used. Reaction mixture of 200 µL comprised of five enzyme units (5U) of HIV-1 protease along with 0.5 pmol of enzyme substrate. After addition of both enzymes and substrates, test compounds were added in different concentrations. Reaction mixture was incubated at 37 °C which leads to generation of fluorescence signal by cleaving Tyr-Pro peptide bond of the substrate. Finally reaction mixture was heated for 5 minutes at 90 °C to stop the reaction. The mixture was centrifuged at 12,000 rpm for 3 min. and supernatant was used to measure the fluorescence signal. The enzyme inhibition was calculated using the Equation (1).

[4] = DPPH· free radical scavenging assay; details: for IC50: DPPH· scavenging, 0.2 mM DPPH· in DMSO, absorbance 515 nm; for antiradical capacity lower than other series 3 analogues (fold): relative to other curcumin analogues in series 3
Procedure: DPPH^· assay is widely used to observe radical scavenging activity of various compounds and extracts. DPPH^· is stable N radical which is reduced to hydrazine during its reaction with hydrogen donors.
Initially, 0.2 mM DPPH^· solution was prepared using DMSO as the solvent. […] During reduction of DPPH^· solution by antiradical compound, absorption of DPPH^· was measured at 515 nm. The spectrophotometric data was acquired using BMG FLUOstar OPTIMA spectrophotometer (BMG Labtech, Durham, NC, USA) and the IC50 values were calculated.

[5] = tested on: human endothelial lung cells; assay: Cytotoxicity analysis by LDH release assay; format: cell-based; details: 10 µM, 24 hours
Procedure: In the current study authors conducted a toxicology study to confirm safety of compounds and their dosage for potential animal or clinical studies. The study was conducted at 10 µM concentration using human endothelial lung cells. […] Literature reports on cytotoxic behavior of potent natural antioxidants are rare. Research in the field of free radicals mainly deals with screening of novel antioxidants and their mechanism of action.
Human lung cell line (ATCC® PCS-100-022™) was purchased from American Type Culture Collection (Cederlane, Burlington, ON, Canada). Cell lines were maintained and grown in DMEM complete growth media, supplemented with 10% fetal bovine serum (FBS), 100 units/mL penicillin and 100 µg/mL streptomycin (Cederlane) at 37 °C, in a humidified 5% CO2 incubator. Cell growth medium was changed every 48 hours and when cells reached 80% confluence, they were detached from 75 cm^2 tissue culture flask using 0.25% trypsin-EDTA treatment. The detached cells were collected in sterile tube in FBS free media. Collected cells were then counted using the Millipore Scepter 2.0 handheld automated cell counter. Further assay specific analysis was performed as described in section 2.10.
Cytotoxicity assay was performed using Promega Cytotox 96® non-radioactive colorimetric assay (Promega Corporation). The assay measures the lactate dehydrogenase (LDH) release upon cell lysis. The released LDH from cells was measured in an enzymatic assay based on conversion of tetrazolium salt to a red formazan product. Briefly, 5,000 human endothelial lung cells in 100 µL of serum-free culture medium were seeded in 96 well sterile plates. Cells were allowed to adhere to the plates for 24 h at 37 °C in a humidified, 5% CO2 incubator. After 24 h, the serum-free media was replaced by test compounds in 100 µL of serum-free culture medium. […] The test compounds at 10 µM concentration were allowed to interact with cells for 24 hours after which absorbance were recorded at 490 nm using BMG FLUOstar OPTIMA spectrophotometer (BMG Labtech, Durham, NC). […]

[6] = DPPH assay, relative to curcumin

Molecule | % Enzyme Inhibition ACE [1] | % Enzyme Inhibition Tyrosinase (Tyrosinase) | FRAP antioxidant capacity [2] | ORAC antioxidant capacity [3] | inhibition at 10 µM (HIV-1 protease) [%] | IC50 [4] [µM] | DPPH· scavenging capacity weaker than curcumin (fold) [4, 6] | cytotoxicity ranking (LDH release), in words [5] | radical scavenging capacity higher than curcumin (fold) [4, 6] | antiradical capacity lower than other series 3 analogues (fold) ([4]; DPPH assay) | ORAC value, peroxyl radical scavenging capacity [3] [mM TE/L] | % Enzyme Inhibition HIV-I protease (HIV-1 protease) | FRAP value ([2]; 10 µM concentration) [mM TE/L]
O=C1/C(=C(O)/C=C/c2ccccc2)CCC/C1=C\c1ccccc1 [Compound 2a] | 19.69 ^g % | 46.1 ^i % | 1.13 ± 0.4 ^g mmole TE/L | 0.12 ± 0.01 ^g mmole TE/L | 48.2 | 2860 | – | – | – | – | – | – | –
COc1ccc(/C=C/C(O)=C2\CCC/C(=C\c3ccc(OC)cc3)C2=O)cc1 [Compound 2c] | 4.01 ^g % | 40.63 ^j % | 1.32 ± 0.001 ^f mmole TE/L | 0.11 ± 0.01 ^g mmole TE/L | 43.7 | 4070 | ~ 5 fold | – | – | – | – | – | –
COc1cc(/C=C/C(O)=C2\CCC/C(=C\c3ccc(O)c(OC)c3)C2=O)ccc1O [Compound 2d] | 84.59 ^ab % | 56.84 ^h % | 5.35 ± 0.1 ^b mmole TE/L | 0.50 ± 0.02 ^ef mmole TE/L | 37.3 | 720 | – | – | – | – | – | – | –
O=C1/C(=C(O)/C=C/c2ccc(Cl)cc2)CCC/C1=C\c1ccc(Cl)cc1 [Compound 2f] | No ACE inhibition activity was detected | 60.15 ^ef % | 1.28 ± 0.04 ^fg mmole TE/L | 0.49 ± 0.1 ^ef mmole TE/L | 9.9 | 710 | – | – | – | – | – | – | –
Cc1ccc(/C=C/C(O)=C2\CCC/C(=C\c3ccc(C)cc3)C2=O)cc1 [Compound 2g] | 15.04 ^g % | 59.44 ^fg % | 1.12 ± 0.02 ^g mmole TE/L | 0.84 ± 0.01 ^d mmole TE/L | 20.1 | 1360 | – | lowest cytotoxicity effects | – | – | – | – | –
O=C1/C(=C(O)/C=C/c2ccccc2)CC/C1=C\c1ccccc1 [Compound 3a] | 51.96 ^ef % | 70.85 ^c % | 1.41 ± 0.1 ^f mmole TE/L | 1.12 ± 0.1 ^c mmole TE/L | 27 | 70 | – | – | over 10 fold | – | – | – | –
O=C1/C(=C(O)/C=C/c2ccc(O)cc2)CC/C1=C\c1ccc(O)cc1 [Compound 3b] | 90.55 ^ab % | – | 2.29 ± 0.1 ^e mmole TE/L | 0.49 ± 0.1 ^ef mmole TE/L | 41.1 | 60 | – | – | over 10 fold | – | – | – | –
Cc1ccc(/C=C/C(O)=C2\CC/C(=C\c3ccc(C)cc3)C2=O)cc1 [Compound 3g] | 46.19 ^ef % | 67.18 ^d % | 0.95 ± 0.02 ^hi mmole TE/L | 1.25 ± 0.04 ^bc mmole TE/L | 22.7 | 510 | – | – | – | approximately 10 fold | – | – | –
O=C1/C(=C(O)/C=C/c2ccc([N+](=O)[O-])cc2)CC/C1=C\c1ccc([N+](=O)[O-])cc1 [Compound 3h] | 88.01 ^ab % | 59.22 ^fg % | 1.05 ± 0.01 ^ghi mmole TE/L | 0.84 ± 0.1 ^d mmole TE/L | 44.8 | 360 | – | – | – | approximately 10 fold | – | – | –
(1E,6E)-1,7-bis(4-hydroxy-3-methoxyphenyl)-1,6-heptadiene-3,5-dione [Curcumin, reference compound] | 76.86 ^bc % | 12.61 ^k % | 5.01 ± 0.1 ^c mmole TE/L | 1.89 ± 0.2 ^a mmole TE/L | – | 860 | – | – | – | – | 5.01 | – | –
(E)-2-(3,4-dimethoxybenzylidene)-5-((E)-3-(3,4-dimethoxyphenyl)acryloyl)cyclopentanone [Compound 3e] | 56.95 ^de % | – | 0.67 ± 0.02 ^j mmole TE/L | 0.69 ± 0.1 ^e mmole TE/L | – | 30 | – | – | over 10 fold | – | – | 44.5 ^cd % | –
(E)-2-(3,4-dimethoxybenzylidene)-6-((E)-3-(3,4-dimethoxyphenyl)acryloyl)cyclohexanone [Compound 2e] | 36.56 ^f % | – | 0.47 ± 0.1 ^k mmole TE/L | 0.60 ± 0.1^e mmole TE/L | – | 2570 | – | – | – | – | – | 61.6 ^a % | 0.47
(E)-2-(4-hydroxy-3-methoxybenzylidene)-5-((E)-3-(4-hydroxy-3-methoxyphenyl)acryloyl)-cyclopentanone [Compound 3d] | 93.89 ^a % | 79.99 ^b % | 6.70 ± 0.32 ^a mmole TE/L | 0.75 ± 0.05 ^d mmole TE/L | – | 70 | – | – | over 10 fold | – | – | 41.8 ^de % | –
(E)-2-(4-hydroxybenzylidene)-6-((E)-3-(4-hydroxyphenyl)acryloyl)cyclohexanone [Compound 2b] | 88.73 ^ab % | – | 3.02 ± 0.02 ^d mmole TE/L | 0.43 ± 0.1 ^f mmole TE/L | – | 2580 | – | – | – | – | – | 55.5 ^b % | –
